Test results: paper PMC12491701, “Discovery of an APP-selective BACE1 inhibitor for Alzheimer's disease” (Neurotherapeutics, 2025)
Where “and” joins values, the source holds several entries; their conditions need not be identical. Equal values may be shown once.

Experiments:
Pharmacokinetics in mice = assay type: in vivo, mouse; settings: SQ injection of 10 mg/Kg, in words; 10 mg/kg
Description: Wildtype or non-transgenic (NTg) C57Bl6 mice or Sprague-Dawley rats were dosed by oral (gavage) or subcutaneous (SQ) injection at 10 or 30 mg/kg, and animals were euthanized 1, 2, 6, and 8 h after administration by ketamine/xylazine over-anesthesia, in rats, CSF was also collected, followed by transcardial collection of blood for isolation of plasma and saline perfusion. Brain tissue was collected post-mortem for assessment of compound levels and biomarkers.
Analyses of compound levels in PK studies were performed in the UCLA Pasarow Mass Spectrometry Lab (PMSL; Julian Whitelegge, Ph.D., Director). Tissues were homogenized in a bead beater using 5 vol of ice-cold 80 % acetonitrile (1/5; mg of brain/μL of 80 % ACN). Plasma analytes were extracted using 4 vol of ice-cold acetonitrile (1/4; μL of plasma/μL of 100 % ACN). Solutions were clarified by centrifugation (16,000×g, 5 min) and the supernatants were transferred to new tubes and lyophilized. Samples were reconstituted in 100 μL of 50/50/0.1 (Water/Acetonitrile/Formic Acid) prior to analysis via liquid chromatography-tandem mass spectrometry (LC-MS/MS).
An internal standard (IS) was added to every sample to account for compound loss during sample processing. Standards were made in drug naïve plasma and tissue lysates with increasing amounts of analyte (S1, S2: 0 pmol/S3, S4: 1 pmol/S5, S6: 10 pmol/S7, S8: 100 pmol, S9, S10: 1000 pmol). The standard curve was made by plotting the known amount of analyte per standard vs. the ratio of measured chromatographic peak areas corresponding to the analyte over that of the IS (analyte/IS). The trendline equation was then used to calculate the absolute concentrations of each compound in plasma and tissue.
The targeted LC-MS/MS assay was developed using the multiple reaction monitoring (MRM) acquisition method on a 6460 triple quadrupole mass spectrometer (Agilent Technologies) coupled to a 1290 Infinity HPLC system (Agilent Technologies) with a Phenomenex analytical column (Kinetex 1.7 μm C18 100 Å 100 × 2.1 mm). The HPLC method utilized a mixture of solvent A (99.9/0.1 Water/Formic Acid) and solvent B (99.9/0.1 Acetonitrile/Formic Acid) and a gradient was use for the elution of the compounds (min/%B: 0/1, 3/1, 19/99, 20/1, 30/1). Two fragment ions were monitored at specific LC retention times to ensure specificity and accurate quantification in the complex biological samples. The normalized chromatographic peak areas were determined by taking the ratio of measured chromatographic peak areas corresponding to the compound over that of the internal standard (Analyte/IS).
The Tmax, Cmax, brain-to-plasma ratios and brain levels were then calculated using PK Solutions software (SummitPK).

[1] = tested on: CHO-7W cells expressing wildtype human APP; assay: sAPPβ and Aβ1-42 production in CHO-7W cells (AlphaLISA); assay type: cell-based, Chinese hamster; settings: in words
Description: Culture Media was collected and frozen. Media was assayed using an AlphaLISA for Aβ1-42 (Perkin Elmer catalog # AL276C), sAPPα (R&D Systems catalog # AF1168 conjugated with Perkin Elmer acceptor beads catalog # 6772001 + 2B3 antibody from IBL catalog # 11088 biotinylated), and sAPPβ (Perkin Elmer AL276-acceptor + IBL catalog # 18957 biotinylated). For the assay, 2 μL of diluted or undiluted sample was added to a 384 well plate, followed by 2 μL of the respective antibody mixture. This was incubated for 1 h. Afterwards, 2 μL of donor beads was added to each well, followed by a 30-min incubation in the dark, after which the signal was read.

BACE1 = BACE1 (Homo sapiens, UniProt P56817); assay: P5-P5′ BACE1 inhibition assay; assay type: biochemical; settings: for IC50: cell-free, read-out: BACE1 IC50 (P5-P5′ assay; BACE1-APP)
Description: For the P5-P5′ BACE1 inhibition assay, 4 ​μL of assay buffer was added to each well, followed by 2 ​μL of BACE1 diluted in assay buffer to 7.5 ​ng/μL. Then, 2 ​μL of inhibitor, at concentrations along an 11 ​pt. two-fold dilution series starting at 10 ​μM, or 0.5 ​μM, were added to appropriate wells and incubated for 30 ​min at room temperature. For all dilutions of inhibitor, drug stock solutions of 10 ​mM in DMSO were diluted to 50 ​μM in water; subsequent dilutions were in 0.5 ​% DMSO. Afterwards, 2 ​μL of fluorogenic P5-P5′ BACE1 substrate, diluted to 50 ​μM in assay buffer, were added to each well and the signal generated was read every 30 ​min at 25 ​°C for 2 ​h.

eAPP = eAPP (Homo sapiens, UniProt P05067); assay: APP binding by surface plasmon resonance (SPR)
Description: The interaction of FAH3, 17 and 65 were evaluated using the SPR protocol described previously in Descamps et al., [26].
For these pilot experiments eAPP as described in Descamps et al (26) is crosslinked to a the CM5 Biacore chip. FAH3 at various concentration was used in the flow through the chip, and the plasmon resonance signal was determined using a Biacore T100. The raw data uncorrected for contribution of running buffer is fit to equilibrium binding data and corrected for the contribution of the running buffer to
For FAH17 and FAH65-APP binding was determined using SPR to determine competition with BSA that non-specifically binds to the eAPP-Biacore chip.

BACE1 cleavage of NRG1 = target: T1, BACE1 cleavage of NRG1 (Homo sapiens, UniProt P56817); assay: SEAP-NRG assay; assay type: cell-based; settings: at ∼1 μM, in words
T1 construct: with or without full-length wild-type BACE1; expressed in transfected cells; host or cells: HEK293
Description: A cDNA construct encoding a human placental secreted alkaline phosphatase (SEAP)-NRG1 (pAPtag5-NRG1-β1) fusion protein was transfected in human embryonic kidney (HEK293) cells in a 6-well format with or without full-length wild-type BACE1 using Lipofectamine 2000 (Invitrogen) as described previously [27]. After transfection, the medium was replaced with DMEM containing the test compound at 10, 5, 1, 0.1, and 0.01 ​μM as well as 10 ​% heat-inactivated fetal bovine serum (FBS), then incubated for 24 ​h. SEAP activity was measured in the conditioned medium.

[2] = Pilot PK of FAH65 vs. verubecestat in rats; assay type: in vivo, rat; settings: oral gavage, 30 mg/kg

BACE1, sequence (P56817 46-501): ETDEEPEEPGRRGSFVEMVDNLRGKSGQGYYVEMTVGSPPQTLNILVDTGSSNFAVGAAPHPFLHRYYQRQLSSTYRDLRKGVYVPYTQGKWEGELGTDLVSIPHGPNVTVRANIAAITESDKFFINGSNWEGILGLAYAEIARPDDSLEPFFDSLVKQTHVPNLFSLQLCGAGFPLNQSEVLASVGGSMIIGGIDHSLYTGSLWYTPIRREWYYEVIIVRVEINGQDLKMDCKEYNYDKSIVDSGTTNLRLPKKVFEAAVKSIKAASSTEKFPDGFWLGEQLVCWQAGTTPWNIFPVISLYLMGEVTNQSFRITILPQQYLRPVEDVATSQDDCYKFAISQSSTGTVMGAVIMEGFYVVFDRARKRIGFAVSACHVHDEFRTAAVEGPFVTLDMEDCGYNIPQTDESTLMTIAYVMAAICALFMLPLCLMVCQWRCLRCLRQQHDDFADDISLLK
T1 sequence (P56817 46-501): as above
eAPP, sequence (P05067 18-701): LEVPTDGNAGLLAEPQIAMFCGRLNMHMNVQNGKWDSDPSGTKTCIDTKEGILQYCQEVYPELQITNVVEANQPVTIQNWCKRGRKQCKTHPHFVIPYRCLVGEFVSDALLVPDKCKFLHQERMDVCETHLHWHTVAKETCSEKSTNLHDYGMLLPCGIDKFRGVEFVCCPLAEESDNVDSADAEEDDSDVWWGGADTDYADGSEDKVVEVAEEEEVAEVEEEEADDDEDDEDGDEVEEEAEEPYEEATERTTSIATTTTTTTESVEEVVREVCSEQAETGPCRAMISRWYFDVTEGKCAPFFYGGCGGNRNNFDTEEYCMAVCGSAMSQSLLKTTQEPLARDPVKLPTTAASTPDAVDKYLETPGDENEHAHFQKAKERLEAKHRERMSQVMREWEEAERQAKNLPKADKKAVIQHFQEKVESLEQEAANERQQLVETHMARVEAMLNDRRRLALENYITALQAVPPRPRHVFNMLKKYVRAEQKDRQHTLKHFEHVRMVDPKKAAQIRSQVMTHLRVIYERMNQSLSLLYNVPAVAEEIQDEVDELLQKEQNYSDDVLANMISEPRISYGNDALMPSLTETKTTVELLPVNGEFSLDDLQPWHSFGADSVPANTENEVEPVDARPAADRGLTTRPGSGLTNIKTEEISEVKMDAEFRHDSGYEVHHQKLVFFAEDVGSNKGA

brain permeability (Pharmacokinetics in mice)	IC50 (BACE1)	Kd (eAPP)	inhibition of SEAP-NRG cleavage (BACE1 cleavage of NRG1)	inhibition at 1 µM (BACE1; at ∼1 μM, read-out: inhibition of BACE1 cleavage of APP)	Cmax ([2]; both sexes, Sprague-Dawley, rat, brain)	time of brain Cmax [2]	SMILES	Aβ42 ([1]; 5 μM)	Aβ1-42 production ([1]; 1 μM)
brain permeable	5000 to 10000 nM and ~10000 nM	–	–	–	–	–	CN1C(=O)C(c2ccccc2)(c2cc(F)cc(F)c2)N=C1N (centres unmarked) [FAH1]	decreased	–
had brain permeability	1000 to 4000 nM and ~1000 nM and 500 to 1000 nM	~300 nM	no SEAP-NRG cleavage	50%	–	–	Cc1cc(C2(c3cc(F)cc(F)c3)N=C(N)N(C)C2=O)ccc1OC(F)F (centres unmarked) [FAH3]	–	decreased
–	–	–	–	–	157 ng/g	2 h	CN1C(=N)N[C@](C)(c2cc(NC(=O)c3ccc(F)cn3)ccc2F)CS1(=O)=O [Veru, verubecestat, reference compound]	–	–
